Experimental data published in US8367677B2, “Non-glycosylated/non-glycosidic/non-peptidic small molecule PSGL-1 mimetics for the treatment of inflammatory disorders” (Revotar Biopharmaceuticals AG, priority 2004, dated 2013).

Columns and labels:
[1] = target: T1, human E-Selectin-IgG-chimera (Homo sapiens, UniProt P16581); test: Sialyl Lewis x Tyrosine Sulfate Assay (sLex TSA), E-selectin; assay type: binding; details: for inhibition at 100 µM / E-Selectin [% Inhib.]: compound at 100 μM; for inhibition at 100 µM: read-out: E-Selectin [% Inhib.]
T1 construct: fused on or other part: human IgG Fc part, a tag and dimerising handle that is captured by the goat anti-human Fc antibody on the plate
T1 sequence (P16581 22-175 limits assumed): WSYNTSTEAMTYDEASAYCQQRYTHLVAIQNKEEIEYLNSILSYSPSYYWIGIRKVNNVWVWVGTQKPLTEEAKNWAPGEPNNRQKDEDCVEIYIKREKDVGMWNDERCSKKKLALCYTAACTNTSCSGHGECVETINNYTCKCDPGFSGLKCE
Protocol: (§1) Compounds of the present invention are assayed on a molecular level for their ability to inhibit the binding of P-, L-, or E-selectin chimeric molecules to sLe^x and tyrosinesulfate residues linked to a polymeric matrix as a PSGL-1 substitute.
(§2) Microtiter plates are coated overnight in carbonate buffer pH9.6 with goat anti human Fc mAB (10 μg/ml). After washing in assay buffer (25 mM 4-(2-hydroxyethyl)-1-piperazineethanesulfonic acid (HEPES), 150 mM NaCl, 1 mM CaCl2 pH7.4) and blocking (3% bovine serum albumin (BSA) in assay buffer) plates are incubated for 2 h at 37° C. with human P-Selectin-IgG-chimera (0.61 nM respectively 150 ng/mL) or human L-Selectin-IgG-chimera (0.61 nM respectively 89 ng/mL) or human E-Selectin-IgG-chimera (0.61 nM respectively 131 ng/mL). 5 μl of sLe^x-tyrosine sulfate polyacrylamide (1 mg/ml) carrying 15% sLe^x, 10% Tyrosine-sulfate and 5% biotin is complexed with 20 μl Streptavidin-Peroxidase solution (1 mg/ml) and 25 μl assay buffer without CaCl2. For use in the assay, the ligand complex is diluted 1:10000 in assay buffer and further diluted 1:1 with varying amounts of compounds in assay buffer incl. 2% DMSO. This mixture is added to the wells precoated with E- or P-selectin. After incubation for 2 h at 37° C., wells are washed for six times with in assay buffer incl. 0.005% Polyoxyethylenesorbitan monolaurate (TWEEN 20), developed for 10-15 min with 20 μl 3,3′,5,5′-tetramethylbenzidine (TMB)/H2O2 substrate solution and stopped with 20 μl […]. Bound sLe^x-Tyrosine sulfate ligand complex is determined by measuring optical density at 450 nm vs. 620 nm in a Fusion alpha-FP reader (sold from Packard Bioscience, Dreieich, Germany).

[2] = system: human E-selectin-IgG chimera; test: Flow chamber assay, cell adhesion and rolling under flow conditions, E-selectin; assay type: cell-based; details: 125 μM compound, flow shear 1 dyne/cm^2
Protocol: (§3) To assess the capability of compounds to inhibit cell binding under dynamic conditions resembling the flow in a blood vessel, flow chamber assays addressing/testing binding of HL-60 cells/various cell lines to P-selectin, L-selectin and E-selectin chimeric molecules are performed.
(§4) Cell attachment under flow conditions are determined using a parallel flow chamber system. A 35 mm polystyrene culture dish is coated for 1 hour at room temperature with coating buffer (50 mM tris-(hydroxymethyl)aminomethane buffer (Tris), 150 mM NaCl, 2 mM CaCl2; pH 7,4) containing human E- or P-selectin-IgG chimera at concentrations of 2.5 μg/ml or 10 μg/ml, respectively. After removal of the coating solution non specific binding sites are blocked for an additional hour with 1% BSA in coating buffer at room temperature. After washing with assay buffer (“Roswell Park Memorial Institute 1640” (RPMI 1640)+10 mM HEPES) the dish is fitted into a parallel plate laminar flow chamber (sold from Glycotech, Rockville, Md.) and mounted on an inverted phase-contrast microscope (sold from Olympus, Hamburg, Germany) equipped with a CCD camera (JVC) that is connected to a PC. Employing a peristaltic pump (sold from Ismatec, Wertheim-Mondfeld, Germany) the re-circulating system is equilibrated with assay buffer containing 125 μM compound or vehicle control (DMSO). Cells (1 million/ml) are added to the chamber and allowed to distribute for 2 minutes at a high flow rate. The flow rate is then decreased resulting in a calculated flow shear of 1 dyne/cm^2. Video sequences of 10 low power fields are digitally recorded after 5 minutes continuous flow. The percentage of inhibition is calculated from the mean number of cells per field that attached to the coated dish surface in the presence versus absence of compound […].

[3] = target: T2, human L-Selectin-IgG-chimera (Homo sapiens, UniProt P14151); test: Sialyl Lewis x Tyrosine Sulfate Assay (sLex TSA), L-selectin; assay type: binding; details: for inhibition at 100 µM / L-Selectin [% Inhib.]: compound at 100 μM; for inhibition at 100 µM: read-out: L-Selectin [% Inhib.]
T2 construct: fused on or other part: human IgG Fc part, a tag and dimerising handle that is captured by the goat anti-human Fc antibody on the plate
T2 sequence (P14151 39-318 limits assumed): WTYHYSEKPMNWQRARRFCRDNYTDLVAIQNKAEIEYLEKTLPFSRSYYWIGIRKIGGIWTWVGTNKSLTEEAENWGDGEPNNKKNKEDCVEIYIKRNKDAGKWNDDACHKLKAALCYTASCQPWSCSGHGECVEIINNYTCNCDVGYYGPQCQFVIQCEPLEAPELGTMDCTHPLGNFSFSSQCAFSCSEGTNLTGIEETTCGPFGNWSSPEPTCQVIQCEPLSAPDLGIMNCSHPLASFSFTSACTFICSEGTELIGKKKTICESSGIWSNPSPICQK
Protocol: as §1, §2

[4] = target: T3, human P-Selectin-IgG-chimera (Homo sapiens, UniProt P16109); test: Sialyl Lewis x Tyrosine Sulfate Assay (sLex TSA), P-selectin; assay type: binding; details: for inhibition at 100 µM / P-Selectin [% Inhib.]: compound at 100 μM; for inhibition at 100 µM: read-out: P-Selectin [% Inhib.]
T3 sequence (P16109 42-771 limits assumed): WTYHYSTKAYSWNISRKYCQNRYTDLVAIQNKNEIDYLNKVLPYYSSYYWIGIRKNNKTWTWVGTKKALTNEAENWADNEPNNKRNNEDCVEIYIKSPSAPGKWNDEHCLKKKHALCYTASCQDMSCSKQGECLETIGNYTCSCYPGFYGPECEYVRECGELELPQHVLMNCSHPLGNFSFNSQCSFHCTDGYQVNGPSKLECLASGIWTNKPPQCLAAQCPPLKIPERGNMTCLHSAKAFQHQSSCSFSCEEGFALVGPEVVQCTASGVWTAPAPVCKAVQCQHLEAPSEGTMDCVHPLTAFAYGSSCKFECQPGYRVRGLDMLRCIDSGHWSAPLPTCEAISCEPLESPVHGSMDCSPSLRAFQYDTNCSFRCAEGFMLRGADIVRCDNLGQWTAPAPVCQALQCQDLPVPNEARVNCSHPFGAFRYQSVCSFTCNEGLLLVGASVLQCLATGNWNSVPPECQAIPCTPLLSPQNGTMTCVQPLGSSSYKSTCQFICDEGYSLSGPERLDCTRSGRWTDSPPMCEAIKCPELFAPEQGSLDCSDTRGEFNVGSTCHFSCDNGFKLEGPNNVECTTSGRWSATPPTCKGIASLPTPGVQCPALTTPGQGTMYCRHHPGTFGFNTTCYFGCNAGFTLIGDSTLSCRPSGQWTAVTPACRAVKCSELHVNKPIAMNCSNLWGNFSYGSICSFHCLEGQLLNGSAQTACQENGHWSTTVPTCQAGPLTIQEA
Protocol: as §1, §2

[5] = system: human P-selectin-IgG chimera; test: Flow chamber assay, cell adhesion and rolling under flow conditions, P-selectin; assay type: cell-based; details: 125 μM compound, flow shear 1 dyne/cm^2
Protocol: as §3, §4

[6] = Parallel Artificial Membrane Permeation Assay (PAMPA); assay type: in vitro ADME; details: 16 hours, room temperature; for [% flux] at pH 4.0: pH 4.0, 500 μM donor; for [% flux] at pH 7.4: pH 7.4, 500 μM donor
Protocol: The test compounds are dissolved at 10 mM in DMSO and diluted to 500 μM with PBS pH 7.4 or pH 4.0, respectively resulting in ‘donor solutions’. For use as an artificial membrane, a 1% solution of lecithin (w/v) in dodecane is prepared and sonicated. Then, 5 μl of the lecithin/dodecane mixture are carefully pipetted into each donor plate well. Immediately after the application of the artificial membrane, 150 μl of drug containing donor solutions are added to each well of the donor plate. Each well of the acceptor plate is filled with 300 μl buffer (PBS with 5% DMSO at pH 7.4 or pH 4.0, respectively) and the drug-filled donor plate is placed onto the acceptor plate, making sure the membrane is in contact with the buffer. After replacement of the lid, the assembled plates are transferred into a sealed box equipped with a moistured towel and incubated at room temperature for 16 hours. Then, the wells of the acceptor plate are analyzed with LC/MS.

SMILES	inhibition at 100 µM [1]	E-Selectin [% Inhib.] of cell attachment [2]	IC50 [3]	inhibition at 100 µM [3]	IC50 [4]	inhibition at 100 µM [4]	IC50 [1]	P-Selectin [% Inhib.] of cell attachment [5]	[% flux] at pH 4.0 [6]	[% flux] at pH 7.4 [6]	E-Selectin [% Inhib.] [1]	L-Selectin [% Inhib.] [3]	P-Selectin [% Inhib.] [4]
O=C(O)Cc1ccc(-c2ccccc2NC(=O)Cc2ccc(O)c(O)c2O)s1 [Compound 41, (5-{2-[2-(2,3,4-Trihydroxyphenyl)-acetylamino]-phenyl}-thiophen-2-yl)acetic acid]	46%	26%	14.6 µM	81%	7.6 µM	92%							
O=C(O)Cc1ccc(-c2ccccc2NC(=O)c2cccc(-c3ccc(O)c(O)c3O)c2)s1 [Compound 48, (5-{2-[(2′,3′,4′-Trihydroxy-biphenyl-3-carbonyl)-amino]-phenyl}-thiophen-2-yl)-acetic acid]	31%	61%	9.8 µM	95%	5.8 µM	97%	132 µM	55%					
O=C(/C=C/c1ccc(O)c(O)c1O)Nc1ccc(C(=O)O)cc1 [Compound 97]	51%		6.2 µM	98%	3.5 µM	97%	285 µM	47%	0%	16%			
O=C(/C=C/c1ccc(O)c(O)c1O)Nc1cccc(C(=O)O)c1 [Compound 99]	71%	28%	24.9 µM	99%	14.4 µM	99%		96%					
Cc1oc(-c2ccc(NC(=O)Cc3cc(O)c(O)c(O)c3)cc2)cc1C(=O)O [Compound 101]								99%			50%	95%	93%
O=C(O)Cc1ccc(-c2ccccc2NC(=O)CCc2cc(O)c(O)c(O)c2)s1 [Compound 102]	99%	35%	3.1 µM	96%	2.4 µM	97%	3.3 µM	11%					
O=C(Cc1cc(O)c(O)c(O)c1)NCc1ccc(C(=O)O)cc1 [Compound 118]	53%	16%	26.2 µM	66%	14.8 µM	79%	8.7 µM	20%	0%	1%			
O=C(CCc1cc(O)c(O)c(O)c1)NCc1ccc(C(=O)O)cc1 [Compound 120]	92%	21%	30.8 µM	87%	34.9 µM	88%	8.4 µM	21%					
Cc1cccc(NC(=O)CCc2ccc(O)c(O)c2O)c1 [Compound 121]		18%						44%	12%	12%	29%	77%	73%
Cc1cccc(NC(=O)Cc2ccc(O)c(O)c2O)c1 [Compound 122]		27%						22%	6%	0%	70%	87%	81%
O=C(Cc1cc(O)c(O)c(O)c1)Nc1cccc(C(F)(F)F)c1 [Compound 123]		51%							27%	0%			
O=C(Cc1ccc(O)c(O)c1O)Nc1cc(Cl)cc(Cl)c1 [Compound 124]		28%						23%	100%	0%			
